The values below come from patent publication US11247973B2 (The University of Durham, priority 2016, dated 2022).

Data set [1] in a line: Mouse in vivo pharmacokinetic assay. Details: species or system male CD-1 mice. The method, then:
Pharmacokinetic evaluation of compound 2 was performed in male CD-1 mice following intravenous (IV) and oral (PO) administration. For intravenous administration the compound was formulated in solution in 40:60 DMA:saline and was administered at 1 mg/kg via the tail vein. For oral administration the compound was formulated in suspension in water containing 1% methylcellulose and 0.1% Tween80, and was administered at 10 mg/kg by oral gavage. Blood samples were taken by cardiac puncture under terminal anaesthesia (isoflurane) at ten timepoints between 1 minute and 24 hours following IV administration, and at nine timepoints between 5 minutes and 24 hours following PO administration (n=3 per timepoint). Plasma was immediately obtained by centrifugation, and the resulting samples frozen until analysis. Samples, along with a calibration curve prepared by spiking the compound into control plasma, were subsequently prepared for quantitative analysis by precipitation of plasma proteins with acetonitrile. Analysis was by ultra high performance liquid chromatography (Agilent 1290 system) coupled to time of flight mass spectrometry, using electrospray ionisation (Agilent 6550 system). Pharmacokinetic parameters were determined by non-compartmental analysis of mean concentration data using Phoenix WinNonlin v6.4.

Data set [2] is described as follows: Microsomal clearance, dog. It counts as in vitro ADME. The following applies: male, Beagle, pooled liver microsomes. The method, then: (§1) Pooled human liver microsomes (pooled male and female), pooled rat liver microsomes (male Sprague Dawley rats) and pooled dog liver microsomes (male Beagle dog) are purchased from a reputable commercial supplier and stored at −80° C. prior to use.
(§2) Microsomes (final protein concentration 0.5 mg/mL), 0.1 M phosphate buffer pH 7.4 and compound 2 (final substrate concentration 3 μM; final DMSO concentration 0.25%) are pre-incubated at 37° C. prior to the addition of NADPH (final concentration 1 mM) to initiate the reaction. The final incubation volume is 50 μL. A control incubation is included for each compound tested where 0.1 M phosphate buffer pH 7.4 is added instead of NADPH (minus NADPH). Two control compounds are included with each species. All incubations are performed singularly for each test compound.
(§3) Compounds are incubated for 0, 5, 15, 30 and 45 min. The control (minus NADPH) is incubated for 45 min only. The reactions are stopped by transferring 25 μL of incubate to 50 μL methanol at the appropriate time points. […] Following protein precipitation, the sample supernatants are combined in cassettes of up to 4 compounds, internal standard is added and samples analysed by LC-MS/MS. From a plot of ln peak area ratio (compound peak area/internal standard peak area) against time, the gradient of the line is determined.
For orientation: Microsomes from liver hold many membrane-bound enzymes, among them those of drug oxidation.

Data set [3] is described as follows: Cell cytotoxicity CC50 assay (A549 and HeLa cells). It is filed as cell-based. The following applies: human, 6-8 days, DMEM+2% FCS. An excerpt: (§4) Cells were obtained from ATCC and the virus preparation was subjected to one round of centrifugation through a 40% (V/V) glycerol to remove any interferon produced from infected cells. Growth medium was Dulbecco's modified Eagle's medium (DMEM) with 10% (v/v) foetal calf serum (FCS), Viral maintainance medium was DMEM+2% (v/v) FCS.
Cell Cytotoxicity—CC50 (Concentration at which 50% Cell Toxicity is Observed):
(§5) A549 cells and HeLa cells were used to seed a set of 96 well plates grown until 50% confluent, a 2 fold serial dilution of the compound was performed on each cell line with DMSO (only) as control starting with 100 μM of the compound. Medium used was DMEM+2% FCS (normal medium for viral growth).
(§6) Cells were allowed to grow for 6-8 days to mimic a TCID50 assay after which cell viability was determined by adding Almar blur (similar to XT) and reading at 600 nm (excitation 540 nm).

Another data set relates to RSV. Briefly: Cytopathic effect (CPE) assay. It is filed as cell-based. Particulars: human respiratory syncytial virus; A549 cells and HeLa cells, 6-8 days, DMEM+2% FCS; read-out: CPE IC50.
Text: as §4
Cytopathic Effect (CPE) Assay—IC50:
as §5, §6
A general note: Cytopathic effects are the visible damage that an infection or toxin causes in cultured cells.

Data set [4] can be described thus: Microsomal clearance, human. The following applies: both, pooled liver microsomes. It is filed as in vitro ADME. The method, then:
as §1, §2, §3

A short description of data set [5]: Microsomal clearance, rat. It counts as in vitro ADME. The following applies: male, Sprague Dawley, pooled liver microsomes. The method, then: as §1, §2, §3
The next data set has as its system MDR1. Briefly: MDR1-MDCK permeability assay. The following applies: dog. It is filed as in vitro ADME. The method, then:
(§7) MDR1-MDCK cells obtained from the NIH (Rockville, Md., USA) are used between passage numbers 6-30. Cells are seeded onto Millipore Multiscreen Transwell plates at 3.4×10^5 cells/cm^2. The cells are cultured in DMEM and media is changed on day 3. On day 4 the permeability study is performed. Cell culture and assay incubations are carried out at 37° C. in an atmosphere of 5% CO2 with a relative humidity of 95%. On the day of the assay, the monolayers are prepared by rinsing both basolateral and apical surfaces twice with Hanks Balanced Salt Solution (HBSS) at the desired pH warmed to 37° C. Cells are then incubated with HBSS at the desired pH in both apical and basolateral compartments for 40 min to stabilise physiological parameters.
(§8) The dosing solutions are prepared by diluting compound 2 with assay buffer to give a final compound 2 concentration of 10 μM (final DMSO concentration of 1% v/v). The fluorescent integrity marker lucifer yellow is also included in the dosing solution. Analytical standards are prepared from test compound DMSO dilutions and transferred to buffer, maintaining a 1% v/v DMSO concentration.
(§9) For assessment of A-B permeability, HBSS is removed from the apical compartment and replaced with compound 2 dosing solution. The apical compartment insert is then placed into a companion plate containing fresh buffer (containing 1% v/v DMSO). For assessment of B-A permeability, HBSS is removed from the companion plate and replaced with compound 2 dosing solution. Fresh buffer (containing 1% v/v DMSO) is added to the apical compartment insert, which is then placed into the companion plate.
(§10) At 60 min the apical compartment inserts and the companion plates are separated and apical and basolateral samples diluted for analysis.
(§11) Compound 2 permeability is assessed in duplicate. Compounds of known permeability characteristics are run as controls on each assay plate.
(§12) Compound 2 and control compounds are quantified by LC-MS/MS cassette analysis using an 8-point calibration with appropriate dilution of the samples. The starting concentration (Co) is determined from the dosing solution and the experimental recovery calculated from Co and both apical and basolateral compartment concentrations.
(§13) The integrity of the monolayer throughout the experiment is checked by monitoring lucifer yellow permeation using fluorimetric analysis. Lucifer yellow permeation is high if monolayers have been damaged.

A further data set has as its system MDR1-MDCK cells. Briefly: MDR1-MDCK permeability assay. It counts as in vitro ADME. The method, then: as §7, §8, §9, §10, §11, §12, §13

Read-outs that look alike come from different tables or passages of the source.

By Vd is commonly meant the apparent volume that relates the amount in the body to the concentration in plasma or blood. Low values mean little distribution into tissue, high ones wide distribution into tissue. What is called clearance is the rate of elimination divided by the concentration. As usually defined, the Cmax is the peak of the concentration-time curve. The term CC50 denotes the concentration giving 50% cytotoxicity. High values mean better tolerance by the cells, low ones harm at low concentration. Broadly, the IC50 is the midpoint of a concentration-inhibition curve. `O=C(CNc1c(F)c(F)nc(F)c1F)N[C@H]1N=C(c2ccccc2)c2ccccc2NC1=O` [Compound 2]: in data set [1] (IV and PO), the “Pharmacokinetic assessment in words” value was “orally bioavailable with moderate clearance”. Also, the F in data set [1] (PO 10 mg/kg vs IV 1 mg/kg) worked out at 54.8%. The Vd in data set [1] (male, CD-1, plasma, IV 1 mg/kg) is 3.65 L/kg. This compound showed a clearance in data set [1] (male, CD-1, plasma, IV 1 mg/kg) of 63.1 mL/min/kg. Moreover, the half-life in data set [1] (male, CD-1, plasma, IV 1 mg/kg, read-out: IV t½) was found to be 59 min; in data set [1] (male, CD-1, plasma, PO 10 mg/kg, read-out: PO t½) it was 132 min. In addition, the Cmax in data set [1] (male, CD-1, plasma, PO 10 mg/kg) was determined as 349 ng/mL. The microsomal CLint at 3 μM in data set [2] (pH 7.4, 0.5 mg/mL protein, read-out: Intrinsic clearance - dog) came to 7.05 µL/min/mg; in data set [4] (pH 7.4, 0.5 mg/mL protein, read-out: Intrinsic clearance - human), 52.6 µL/min/mg; in data set [5] (pH 7.4, 0.5 mg/mL protein, read-out: Intrinsic clearance - rat), 29.2 µL/min/mg. The half-life at 3 μM in data set [2] (pH 7.4, read-out: t½ - dog) was 197 min; in data set [4] (pH 7.4, read-out: t½ - human) it was 26.3 min; in data set [5] (pH 7.4, read-out: t½ - rat), 47.5 min. Further, the CC50 in data set [3] worked out at 100 µM. In addition, in the data set on RSV, the IC50 came out at 0.625 µM. For the same compound, the Papp A→B at 60 min, 10 μM with MDR1 (10 μM, 60 min, read-out: Permeability A2B) is 0.553 ×10⁻⁶ cm/s. In the data set on MDR1 (10 μM, 60 min, read-out: Permeability B2A), the Papp B→A at 60 min, 10 μM is 76.3 ×10⁻⁶ cm/s. Moreover, in the data set on MDR1 (read-out: Efflux ratio B2A/A2B), the efflux ratio at 60 min, 10 μM stood at 138. The “Permeability assessment in words” value with MDR1-MDCK cells is reported as “permeable compound but with a susceptibility for an efflux mechanism”.
